In ChEMBL document CHEMBL5380800, “Discovery of Small-Molecule Autophagy Inhibitors by Disrupting the Protein-Protein Interactions Involving Autophagy-Related 5” (J Med Chem, 2023) one finds inhibition and IC50 data, which are given here for 38 compounds.

What is called inhibition is the drop in the measured response relative to a control, in per cent. Usually IC50 stands for the concentration that inhibits the measured activity by half.

Where only a bound is given, the exact number is not on record here.

For one assay, the system named is COS-7. The assay can be described thus: Inhibition of autophagy in African green monkey COS-7 cells at 20 uM by flow cytometry analysis relative to control. The assay is classed as functional. As to conditions: Chlorocebus aethiops; call rule not given here. On the technique in general: Flow cytometry measures light scatter and fluorescence of single cells or particles in a stream.
Assay [1] can be described thus: Inhibition of ATG5-ATG16L1 (unknown origin) protein protein interaction expressed in Escherichia coli BL21 (DE3) by HTRF method. Details: species or system Homo sapiens.
Assay [2] can be described thus: Inhibition of ATG5-TECAIR (unknown origin) protein protein interaction expressed in Escherichia coli BL21 (DE3) by HTRF method. Details: species or system Homo sapiens. (In general: Time-resolved FRET reads energy transfer from a long-lived donor to a nearby acceptor.)

Regarding `O=C(O)c1ccc(N2C(=O)/C(=C/c3ccc(-c4ccc(Cl)cc4)o3)C=C2c2ccccc2)cc1`, at 20 µM the inhibition with COS-7 was 98.2%. The IC50 in assay [1] (read-out: IC50) is greater than 33 µM; in assay [2] (read-out: IC50) it was 17 µM.
In the case of `COC(=O)c1ccc(N2C(=O)/C(=C/c3ccc(-c4ccc([N+](=O)[O-])cc4)o3)C=C2c2ccccc2)cc1`, the inhibition at 20 µM with COS-7 was found to be 98.9%. The IC50 entry in assay [1] and in assay [2] was “Not Active” each time.
Consider `CC1=NN(c2ccc(C(=O)O)cc2)C(=O)/C1=C\c1ccc(-c2cc(C)c(C)cc2[N+](=O)[O-])s1`, for which the IC50 in assay [1] (read-out: IC50) came out at 11.6 µM; in assay [2] (read-out: IC50), 11.9 µM.
For `Cc1cc(-c2ccc(CC3C(=O)N(c4ccc(C(=O)O)cc4)N=C3C3CC3)s2)c([N+](=O)[O-])cc1C` (stereo not given), the IC50 in assay [1] (read-out: IC50) and in assay [2] (read-out: IC50) was greater than 33 µM each time.
In turn, `NC(=O)c1ccc(-c2ccc(/C=C3\C=C(c4ccccc4)N(Cc4ccc(C(=O)O)cc4)C3=O)o2)cc1` registered an inhibition at 20 µM with COS-7 of 38.9%. The IC50 in assay [1] (read-out: IC50) and in assay [2] (read-out: IC50) was greater than 33 µM each time.
As to `CC1=NN(c2ccc(C(=O)O)cc2)C(=O)C1Cc1ccc(-c2cc(C)c(C)cc2[N+](=O)[O-])s1` (stereo not given), the IC50 result in assay [1] is “Not Active”; in assay [2] (read-out: IC50) it was greater than 33 µM.
Regarding `CC(=O)c1cccc(-c2ccc(/C=C3\C=C(c4ccccc4)N(Cc4ccc(C(=O)O)cc4)C3=O)o2)c1`, the IC50 in assay [1] (read-out: IC50) is 27.4 µM; in assay [2] (read-out: IC50) it was 14.9 µM.
As to `CC1=NN(c2ccc(C(=O)O)cc2)C(=O)C1Cc1ccc(-c2cccc([N+](=O)[O-])c2)s1` (stereo not given), the values for the IC50 entry in assay [1] and in assay [2] (read-out: IC50) were “Not Active” and greater than 33 µM, respectively.
Consider `COc1ccc(-c2ccc(/C=C3\C=C(c4ccccc4)N(c4ccc(C(=O)O)cc4)C3=O)o2)cc1`, for which the inhibition at 20 µM with COS-7 came to 96.6%. The IC50 stood at 25 µM in assay [1] (read-out: IC50) and 16 µM in assay [2] (read-out: IC50).
Taken in the same sequence, the figures for `O=C(O)c1ccc(CN2C(=O)/C(=C/c3ccc(-c4ccc([N+](=O)[O-])cc4)o3)C=C2c2ccccc2)cc1` were 5.88%, 2.29 µM and 3.68 µM.
In the case of `O=C(O)c1ccc(N2C(=O)/C(=C/c3ccc(-c4cncnc4)s3)C=C2c2ccccc2)cc1`, the inhibition at 20 µM with COS-7 stood at 95.6%. For the same compound, the IC50 in assay [1] (read-out: IC50) and in assay [2] (read-out: IC50) was greater than 11 µM each time.
With `CC1=NN(c2ccc(C(=O)O)cc2)C(=O)/C1=C\c1ccc(-c2cccc([N+](=O)[O-])c2)s1`, the IC50 is 11.2 µM in assay [1] (read-out: IC50) and 23 µM in assay [2] (read-out: IC50).
In the assay on COS-7, `O=C(O)c1ccc(N2C(=O)/C(=C/c3ccc(-c4ccc(Br)cc4)o3)C=C2c2ccccc2)cc1` yielded an inhibition at 20 µM of 97.3%. Moreover, the IC50 in assay [1] (read-out: IC50) is greater than 33 µM; in assay [2] (read-out: IC50), 19 µM.
Turning to `Cc1cc(-c2ccc(/C=C3\C(=O)N(c4ccc(C(=O)O)cc4)N=C3C3CC3)s2)c(C(F)(F)F)cc1C`, the IC50 in assay [1] (read-out: IC50) and in assay [2] (read-out: IC50) was greater than 33 µM in each case.
In the case of `CC1=NN(c2ccc(C(=O)O)cc2)C(=O)/C1=C\c1ccc(-c2cc(C)c(C)cc2C(F)(F)F)o1`, the IC50 in assay [1] (read-out: IC50) is greater than 33 µM; in assay [2] (read-out: IC50), 31.1 µM.
As for `CS(=O)(=O)c1ccc(-c2ccc(/C=C3\C=C(c4ccccc4)N(Cc4ccc(C(=O)O)cc4)C3=O)o2)cc1`, in the assay with COS-7, the inhibition at 20 µM came to 53.7%. The results for the concentration for half-maximal inhibition (IC50) entry in assay [1] and in assay [2] (read-out: IC50) were “Not Active” and greater than 33 µM, respectively.
`COC(=O)c1ccc(CN2C(=O)/C(=C/c3ccc(-c4ccc([N+](=O)[O-])cc4)o3)C=C2c2ccccc2)cc1` had an inhibition at 20 µM in the assay on COS-7 of 59.8%. For the same compound, the IC50 entry in assay [1] and in assay [2] was “Not Active” each time.
Regarding `Cc1cc(-c2ccc(/C=C3\C(=O)N(c4ccc(C(=O)O)cc4)N=C3C3CC3)s2)c([N+](=O)[O-])cc1C`, the IC50 in assay [1] (read-out: IC50) was 22.3 µM; in assay [2] (read-out: IC50) it was greater than 33 µM.
Taken in the same sequence, the figures for `CC1=NN(c2ccc(C(=O)O)cc2)C(=O)C1Cc1ccc(-c2ccc([N+](=O)[O-])cc2)s1` (stereo not given) were greater than 33 µM and greater than 33 µM.
On to `CCOC(=O)CN1C(=O)/C(=C/c2ccc(-c3ccc([N+](=O)[O-])cc3)o2)C=C1c1ccccc1`, for which, in the assay on COS-7, the inhibition at 20 µM was 79%.
Consider `O=C(O)c1ccc(N2C(=O)/C(=C/c3ccc(-c4ccc5nonc5c4)o3)C=C2c2ccccc2)cc1`, for which, in the assay with COS-7, the inhibition at 20 µM was determined as 94.7%. Also, the IC50 in assay [1] (read-out: IC50) is 17 µM; in assay [2] (read-out: IC50), 12 µM.
In turn, `CCCCN1C(=O)/C(=C/c2ccc(-c3ccc([N+](=O)[O-])cc3)o2)C=C1c1ccccc1` showed an inhibition at 20 µM in the assay on COS-7 of 77.8%.
As for `COC(=O)CCCN1C(=O)/C(=C/c2ccc(-c3ccc([N+](=O)[O-])cc3)o2)C=C1c1ccccc1`, in the assay with COS-7, the inhibition at 20 µM is 74.5%. Besides, the IC50 entry in assay [1] and in assay [2] was “Not Active” each time.
On to `O=C(O)CCCCN1C(=O)/C(=C/c2ccc(-c3ccc([N+](=O)[O-])cc3)o2)C=C1c1ccccc1`, for which testing at 20 µM with COS-7 gave an inhibition of 14.6%. For the same compound, the IC50 in assay [1] (read-out: IC50) was greater than 33 µM; in assay [2] (read-out: IC50) it was 19.2 µM.
Take `COC(=O)c1cccc(CN2C(=O)/C(=C/c3ccc(-c4ccc([N+](=O)[O-])cc4)o3)C=C2c2ccccc2)c1`: 20 µM produced 78.4% inhibition in the assay on COS-7.
Compound `O=C(O)c1ccc(N2C(=O)/C(=C/c3ccc(-c4ccc(O)cc4)s3)C=C2c2ccccc2)cc1` showed an inhibition at 20 µM in the assay on COS-7 of 98.8%. Besides, the IC50 in assay [1] (read-out: IC50) was found to be 12 µM; in assay [2] (read-out: IC50), 10 µM.
Consider `CCN(CC)CCCC(C)Nc1ccnc2cc(Cl)ccc12` (stereo not given) [CHLOROQUINE], for which the IC50 stood at 37 µM in assay [1] (read-out: IC50) and 28 µM in assay [2] (read-out: IC50).
On to `CC1=NN(c2ccc(C(=O)O)cc2)C(=O)C1Cc1ccc(-c2cc(C)c(C)cc2[N+](=O)[O-])o1` (stereo not given), for which the IC50 in assay [1] (read-out: IC50) and in assay [2] (read-out: IC50) was greater than 33 µM in each case.
On to `CC1=NN(c2ccc(C(=O)O)cc2)C(=O)/C1=C\c1ccc(-c2ccccc2P(C)(C)=O)o1`, for which the IC50 result in assay [1] and in assay [2] was “Not Active” throughout.
Consider `O=C(O)CCN1C(=O)/C(=C\c2ccc(-c3ccc([N+](=O)[O-])cc3)o2)SC1=S`, for which the IC50 in assay [1] (read-out: IC50) was 27 µM; in assay [2] (read-out: IC50) it was 19 µM.
In the case of `CC1=NN(c2ccccc2)C(=O)/C1=C\c1ccc(-c2cc(C)c(C)cc2[N+](=O)[O-])o1`, the IC50 result in assay [1] was “Not Active”; in assay [2] (read-out: IC50) it was greater than 33 µM.
For `CC1=NN(c2ccc(-n3cnnn3)cc2)C(=O)/C1=C\c1ccc(-c2cc(C)c(C)cc2[N+](=O)[O-])o1`, the IC50 in assay [1] (read-out: IC50) and in assay [2] (read-out: IC50) was greater than 33 µM throughout.
Regarding `CC1=NN(c2ccc(C(=O)O)cc2)C(=O)/C1=C\c1ccc(-c2ccccc2C(F)F)o1`, the results for the IC50 in assay [1] (read-out: IC50) and in assay [2] (read-out: IC50) were 21.4 µM and greater than 33 µM, respectively.
Turning to `O=C(O)CCN1C(=O)/C(=C/c2ccc(-c3ccc([N+](=O)[O-])cc3Cl)o2)SC1=S`, the IC50 in assay [1] (read-out: IC50) came to 16 µM; in assay [2] (read-out: IC50) it was 23 µM.
Taken in the same sequence, the figures for `CC1=NN(c2ccc(C(=O)O)cc2)C(=O)/C1=C\c1ccc(-c2cc(C)c(C)cc2[N+](=O)[O-])o1` were greater than 33 µM and greater than 33 µM.
`O=C1/C(=C/c2ccc(-c3ccc([N+](=O)[O-])cc3)o2)C=C(c2ccccc2)N1Cc1ccccc1Br` displayed an inhibition at 20 µM in the assay with COS-7 of 82.5%.
On to `CC1=NN(c2ccc(C(=O)O)cc2)C(=O)/C1=C\c1ccc(-c2ccc([N+](=O)[O-])cc2)s1`, for which the IC50 in assay [1] (read-out: IC50) was determined as 5.24 µM; in assay [2] (read-out: IC50) it was 6.08 µM.
On to `O=C(O)CCN1C(=O)/C(=C/c2cc([N+](=O)[O-])ccc2OCc2ccccc2Cl)SC1=S`, for which the 50% inhibitory concentration (IC50) in assay [1] (read-out: IC50) came out at 16 µM; in assay [2] (read-out: IC50), 26 µM.
